The subject of assay [1] is T-G10 (DNA, G4) AGGGTTAGGTTTAGGGTTAGGG
The experiment in a line: triplet decay, laser flash photolysis. As to conditions: 100 mM NaCl; 10 mM Tris-HCl, 1 mM EDTA, pH 7.5, room temperature; 2 μM ZnTMPyP4; intercalation 53%.

In assay [2] the test system is T-G8 (DNA, G4) AGGGTTATGGTTAGGGTTAGGG
Kind of assay: triplet decay, laser flash photolysis. As to conditions: 100 mM NaCl; 10 mM Tris-HCl, 1 mM EDTA, pH 7.5, room temperature; 2 μM ZnTMPyP4; intercalation 63%.

The test system of assay [3] is (G4T4G4)2 (DNA, G4) GGGGTTTTGGGG
Kind of assay: UV-vis absorption titration. As to conditions: 100 mM NaCl; 10 mM Tris-HCl, 1 mM EDTA, pH 7.5, room temperature; 2 μM ZnTMPyP4.

Assay [4] relates to (TG4T)4 (DNA, G4) TGGGGT. Kind of assay: UV-vis absorption titration. As to conditions: 100 mM KCl; 10 mM Tris-HCl, 1 mM EDTA, pH 7.5, room temperature; 2 μM ZnTMPyP4.
Assay [5] relates to AG3(T2AG3)3 (DNA, G4) AGGGTTAGGGTTAGGGTTAGGG
The experiment in a line: UV-vis absorption titration. As to conditions: 100 mM NaCl; 10 mM Tris-HCl, 1 mM EDTA, pH 7.5, room temperature; 2 μM ZnTMPyP4.

Structures are written as SMILES.

On to `C[n+]1ccc(-c2c3nc(c(-c4cc[n+](C)cc4)c4ccc([n-]4)c(-c4cc[n+](C)cc4)c4nc(c(-c5cc[n+](C)cc5)c5ccc2[n-]5)C=C4)C=C3)cc1.O.[Zn+2]`, for which the binding result in assay [1] and in assay [2] was “yes” each time. For the same compound, the values for the binding constants in assay [3], in assay [4] and in assay [5] were 100000 M⁻¹, 1e+06 M⁻¹ and 3.6e+06 M⁻¹, respectively.

For the origin of these results see paper PMC5591184 (2017).
